# Measured values as given in ChEMBL document CHEMBL4507317, “Data for DCP probe BAY-899” (2021).
# Assays:
# [1] = target: Mitogen-activated protein kinase kinase kinase 13 (Homo sapiens) (UniProt O43283); settings: Compound concentration 1000.0 nM
# [2] = target: Activin receptor type-2B (Homo sapiens) (UniProt Q13705); settings: Compound concentration 1000.0 nM
# [3] = target: Mitogen-activated protein kinase kinase kinase kinase 3 (Homo sapiens) (UniProt Q8IVH8); settings: Compound concentration 1000.0 nM
# [4] = target: Serine/threonine-protein kinase/endoribonuclease IRE1 (Homo sapiens) (UniProt O75460); settings: Compound concentration 1000.0 nM
# [5] = target: STE20-like serine/threonine-protein kinase (Homo sapiens) (UniProt Q9H2G2); settings: Compound concentration 1000.0 nM
# [6] = target: Uncharacterized serine/threonine-protein kinase SBK3 (Homo sapiens) (UniProt P0C264); settings: Compound concentration 1000.0 nM
# [7] = target: Serine/threonine-protein kinase mTOR (Homo sapiens) (UniProt P42345); settings: Compound concentration 1000.0 nM
# [8] = target: Rhodopsin kinase GRK7 (Homo sapiens) (UniProt Q8WTQ7); settings: Compound concentration 1000.0 nM
# [9] = system: Tyrosine-protein kinase ABL1 (Homo sapiens), P00519 [F317L]; settings: Compound concentration 1000.0 nM
# [10] = target: Ribosomal protein S6 kinase alpha-3 (Homo sapiens) (UniProt P51812); settings: Compound concentration 1000.0 nM
# [11] = target: Tyrosine-protein kinase JAK3 (Homo sapiens) (UniProt P52333); settings: Compound concentration 1000.0 nM
# [12] = target: Interleukin-1 receptor-associated kinase 3 (Homo sapiens) (UniProt Q9Y616); settings: Compound concentration 1000.0 nM
# [13] = target: Serine/threonine-protein kinase Nek10 (Homo sapiens) (UniProt Q6ZWH5); settings: Compound concentration 1000.0 nM
# [14] = target: 5-hydroxytryptamine receptor 1D (Homo sapiens) (UniProt P28221); settings: Compound concentration 10.0 uM
# [15] = target: MAP/microtubule affinity-regulating kinase 3 (Homo sapiens) (UniProt P27448); settings: Compound concentration 1000.0 nM
# Chain of MAP/microtubule affinity-regulating kinase 3 (Homo sapiens) (P27448 whole entry, looked up): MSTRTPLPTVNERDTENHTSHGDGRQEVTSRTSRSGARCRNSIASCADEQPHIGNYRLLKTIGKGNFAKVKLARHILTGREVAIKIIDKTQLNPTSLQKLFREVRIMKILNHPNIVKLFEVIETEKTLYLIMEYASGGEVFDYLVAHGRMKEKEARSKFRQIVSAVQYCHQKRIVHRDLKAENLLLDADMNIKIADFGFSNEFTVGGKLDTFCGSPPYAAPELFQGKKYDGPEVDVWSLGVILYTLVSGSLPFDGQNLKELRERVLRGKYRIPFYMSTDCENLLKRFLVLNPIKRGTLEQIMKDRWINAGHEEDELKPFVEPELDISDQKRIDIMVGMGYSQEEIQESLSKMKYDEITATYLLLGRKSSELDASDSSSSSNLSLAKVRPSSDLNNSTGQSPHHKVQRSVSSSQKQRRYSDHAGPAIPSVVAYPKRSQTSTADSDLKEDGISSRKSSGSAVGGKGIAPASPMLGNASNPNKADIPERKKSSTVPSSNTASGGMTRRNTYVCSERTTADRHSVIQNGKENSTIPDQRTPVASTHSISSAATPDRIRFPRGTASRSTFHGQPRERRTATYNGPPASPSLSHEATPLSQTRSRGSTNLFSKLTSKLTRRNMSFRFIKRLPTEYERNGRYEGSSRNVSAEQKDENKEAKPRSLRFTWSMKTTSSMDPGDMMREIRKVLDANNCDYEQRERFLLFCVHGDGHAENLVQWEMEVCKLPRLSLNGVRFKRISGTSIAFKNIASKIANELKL
# [16] = target: Serine/threonine-protein kinase TAO2 (Homo sapiens) (UniProt Q9UL54); settings: Compound concentration 1000.0 nM
# Chain of Serine/threonine-protein kinase TAO2 (Homo sapiens) (Q9UL54 whole entry): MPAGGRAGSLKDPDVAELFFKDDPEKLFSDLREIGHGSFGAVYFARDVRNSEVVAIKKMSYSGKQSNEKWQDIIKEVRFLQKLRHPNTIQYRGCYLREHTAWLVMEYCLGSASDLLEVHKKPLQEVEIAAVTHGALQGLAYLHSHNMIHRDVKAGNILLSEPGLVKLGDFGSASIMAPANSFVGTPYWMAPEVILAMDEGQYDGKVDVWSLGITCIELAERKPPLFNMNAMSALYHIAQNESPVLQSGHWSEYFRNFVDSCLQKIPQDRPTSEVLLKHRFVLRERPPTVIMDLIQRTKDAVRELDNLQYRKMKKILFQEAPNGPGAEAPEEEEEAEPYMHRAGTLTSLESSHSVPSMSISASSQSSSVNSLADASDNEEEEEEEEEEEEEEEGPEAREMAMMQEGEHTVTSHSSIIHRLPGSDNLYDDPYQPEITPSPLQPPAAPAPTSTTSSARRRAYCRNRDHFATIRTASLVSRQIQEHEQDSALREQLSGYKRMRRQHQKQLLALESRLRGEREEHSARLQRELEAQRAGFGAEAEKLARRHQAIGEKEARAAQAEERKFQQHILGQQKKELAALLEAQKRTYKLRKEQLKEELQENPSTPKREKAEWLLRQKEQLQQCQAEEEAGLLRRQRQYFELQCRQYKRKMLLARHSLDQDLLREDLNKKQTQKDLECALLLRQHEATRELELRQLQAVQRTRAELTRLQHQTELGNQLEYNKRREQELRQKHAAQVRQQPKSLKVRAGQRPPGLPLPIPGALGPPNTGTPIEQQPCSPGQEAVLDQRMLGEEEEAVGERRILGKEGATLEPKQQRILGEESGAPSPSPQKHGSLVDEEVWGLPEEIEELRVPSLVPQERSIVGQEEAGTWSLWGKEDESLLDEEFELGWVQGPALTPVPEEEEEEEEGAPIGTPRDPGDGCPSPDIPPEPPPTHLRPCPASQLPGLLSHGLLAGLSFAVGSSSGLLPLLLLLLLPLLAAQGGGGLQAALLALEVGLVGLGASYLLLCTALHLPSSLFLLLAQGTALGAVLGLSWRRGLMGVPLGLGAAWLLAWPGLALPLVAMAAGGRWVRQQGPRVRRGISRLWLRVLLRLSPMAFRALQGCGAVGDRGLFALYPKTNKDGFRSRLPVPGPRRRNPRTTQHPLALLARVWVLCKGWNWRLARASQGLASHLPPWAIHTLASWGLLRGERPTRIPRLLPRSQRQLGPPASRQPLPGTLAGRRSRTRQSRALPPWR
# [17] = target: Serine/threonine-protein kinase 4 (Homo sapiens) (UniProt Q13043); settings: Compound concentration 1000.0 nM
# [18] = target: RAC-gamma serine/threonine-protein kinase (Homo sapiens) (UniProt Q9Y243); settings: Compound concentration 1000.0 nM
# [19] = target: Receptor-interacting serine/threonine-protein kinase 2 (Homo sapiens) (UniProt O43353); settings: Compound concentration 1000.0 nM
# [20] = target: Serine/threonine-protein kinase WNK3 (Homo sapiens) (UniProt Q9BYP7); settings: Compound concentration 1000.0 nM
# [21] = target: Citron Rho-interacting kinase (Homo sapiens) (UniProt O14578); settings: Compound concentration 1000.0 nM
# [22] = target: Mitogen-activated protein kinase kinase kinase 15 (Homo sapiens) (UniProt Q6ZN16); settings: Compound concentration 1000.0 nM
# [23] = target: Receptor-type tyrosine-protein kinase FLT3 (Homo sapiens) (UniProt P36888); settings: Compound concentration 1000.0 nM
# [24] = target: SRSF protein kinase 3 (Homo sapiens) (UniProt Q9UPE1); settings: Compound concentration 1000.0 nM
# [25] = target: Dual specificity protein kinase CLK2 (Homo sapiens) (UniProt P49760); settings: Compound concentration 1000.0 nM
# [26] = target: Fibroblast growth factor receptor 1 (Homo sapiens) (UniProt P11362); settings: Compound concentration 1000.0 nM
# [27] = target: 1-phosphatidylinositol 3-phosphate 5-kinase (Homo sapiens) (UniProt Q9Y2I7); settings: Compound concentration 1000.0 nM
# Chain of 1-phosphatidylinositol 3-phosphate 5-kinase (Homo sapiens) (Q9Y2I7 whole entry): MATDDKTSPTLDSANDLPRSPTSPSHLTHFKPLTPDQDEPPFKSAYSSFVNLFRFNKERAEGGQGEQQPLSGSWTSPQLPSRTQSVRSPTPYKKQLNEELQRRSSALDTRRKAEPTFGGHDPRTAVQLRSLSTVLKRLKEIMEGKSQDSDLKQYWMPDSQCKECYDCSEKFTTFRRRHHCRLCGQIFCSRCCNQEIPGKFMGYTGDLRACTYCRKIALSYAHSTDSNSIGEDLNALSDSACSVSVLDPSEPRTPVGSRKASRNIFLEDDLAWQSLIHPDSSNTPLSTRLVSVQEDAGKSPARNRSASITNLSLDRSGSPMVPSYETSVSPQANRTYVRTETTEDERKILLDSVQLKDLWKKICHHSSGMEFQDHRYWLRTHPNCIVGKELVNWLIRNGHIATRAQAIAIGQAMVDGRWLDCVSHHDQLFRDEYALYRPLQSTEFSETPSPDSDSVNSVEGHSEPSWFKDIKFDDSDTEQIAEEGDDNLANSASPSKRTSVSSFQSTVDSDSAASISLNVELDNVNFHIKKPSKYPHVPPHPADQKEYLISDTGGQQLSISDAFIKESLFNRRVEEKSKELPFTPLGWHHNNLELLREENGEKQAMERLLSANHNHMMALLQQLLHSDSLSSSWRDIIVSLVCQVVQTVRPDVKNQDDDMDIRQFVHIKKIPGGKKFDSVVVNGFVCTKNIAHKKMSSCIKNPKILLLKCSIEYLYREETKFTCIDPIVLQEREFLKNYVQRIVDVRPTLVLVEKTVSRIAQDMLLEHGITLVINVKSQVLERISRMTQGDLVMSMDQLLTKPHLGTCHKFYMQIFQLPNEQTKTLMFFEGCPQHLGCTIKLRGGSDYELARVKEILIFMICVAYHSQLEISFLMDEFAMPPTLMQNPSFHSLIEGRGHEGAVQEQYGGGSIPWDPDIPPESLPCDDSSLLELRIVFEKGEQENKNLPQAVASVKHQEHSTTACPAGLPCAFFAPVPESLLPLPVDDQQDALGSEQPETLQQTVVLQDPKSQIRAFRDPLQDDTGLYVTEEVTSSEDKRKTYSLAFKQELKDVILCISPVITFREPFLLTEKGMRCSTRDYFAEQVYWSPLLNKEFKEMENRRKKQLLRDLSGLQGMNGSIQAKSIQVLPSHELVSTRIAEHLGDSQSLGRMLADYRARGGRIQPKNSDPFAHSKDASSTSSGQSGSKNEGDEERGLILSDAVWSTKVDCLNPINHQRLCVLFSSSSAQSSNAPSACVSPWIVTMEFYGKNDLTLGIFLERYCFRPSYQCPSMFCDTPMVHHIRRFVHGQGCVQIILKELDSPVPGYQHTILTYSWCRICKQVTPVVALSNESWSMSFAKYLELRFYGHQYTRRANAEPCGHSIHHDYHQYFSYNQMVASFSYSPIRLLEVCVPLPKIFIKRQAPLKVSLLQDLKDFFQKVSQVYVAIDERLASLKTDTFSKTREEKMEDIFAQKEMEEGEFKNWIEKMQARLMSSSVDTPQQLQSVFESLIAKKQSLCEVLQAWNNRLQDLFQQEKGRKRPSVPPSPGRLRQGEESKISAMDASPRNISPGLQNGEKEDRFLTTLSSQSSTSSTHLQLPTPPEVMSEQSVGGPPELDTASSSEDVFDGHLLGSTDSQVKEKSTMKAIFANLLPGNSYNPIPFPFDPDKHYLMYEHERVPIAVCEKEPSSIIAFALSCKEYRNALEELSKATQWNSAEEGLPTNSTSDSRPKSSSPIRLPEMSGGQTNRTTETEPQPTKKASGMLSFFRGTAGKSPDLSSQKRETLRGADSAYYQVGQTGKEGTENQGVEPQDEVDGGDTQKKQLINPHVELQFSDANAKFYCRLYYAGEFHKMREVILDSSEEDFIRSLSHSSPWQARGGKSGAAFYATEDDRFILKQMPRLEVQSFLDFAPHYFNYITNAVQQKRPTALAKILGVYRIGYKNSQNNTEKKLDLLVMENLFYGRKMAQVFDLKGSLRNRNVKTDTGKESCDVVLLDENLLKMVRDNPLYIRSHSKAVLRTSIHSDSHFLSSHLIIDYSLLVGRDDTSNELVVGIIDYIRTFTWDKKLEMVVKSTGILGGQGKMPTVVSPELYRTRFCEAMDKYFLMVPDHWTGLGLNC
# [28] = target: Ephrin type-B receptor 2 (Homo sapiens) (UniProt P29323); settings: Compound concentration 1000.0 nM
# [29] = target: Ribosomal protein S6 kinase alpha-2 (Homo sapiens) (UniProt Q15349); settings: Compound concentration 1000.0 nM
# [30] = target: Follicle-stimulating hormone receptor (Homo sapiens, UniProt P23945); assay: Cell-based assay (FSH Antagonism)
# Chain of Follicle-stimulating hormone receptor (P23945 whole entry): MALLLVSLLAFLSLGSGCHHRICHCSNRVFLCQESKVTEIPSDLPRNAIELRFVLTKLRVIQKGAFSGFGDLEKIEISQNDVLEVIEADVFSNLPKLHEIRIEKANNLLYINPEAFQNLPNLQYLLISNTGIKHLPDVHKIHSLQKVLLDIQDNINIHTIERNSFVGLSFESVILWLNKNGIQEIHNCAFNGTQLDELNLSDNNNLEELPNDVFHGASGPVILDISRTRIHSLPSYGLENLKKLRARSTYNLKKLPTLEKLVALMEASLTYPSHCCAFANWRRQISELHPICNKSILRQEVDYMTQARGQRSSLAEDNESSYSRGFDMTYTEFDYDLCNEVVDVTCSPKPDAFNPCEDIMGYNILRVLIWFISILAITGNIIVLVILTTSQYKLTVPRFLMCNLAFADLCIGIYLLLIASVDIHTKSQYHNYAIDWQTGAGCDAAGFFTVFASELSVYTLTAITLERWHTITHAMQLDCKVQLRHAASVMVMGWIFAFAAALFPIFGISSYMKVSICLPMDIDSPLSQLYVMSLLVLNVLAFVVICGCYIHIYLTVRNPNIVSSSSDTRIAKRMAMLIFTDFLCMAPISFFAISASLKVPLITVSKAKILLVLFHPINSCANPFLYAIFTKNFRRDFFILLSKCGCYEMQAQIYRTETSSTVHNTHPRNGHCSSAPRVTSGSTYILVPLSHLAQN
# [31] = target: NUAK family SNF1-like kinase 2 (Homo sapiens) (UniProt Q9H093); settings: Compound concentration 1000.0 nM
# [32] = target: Tyrosine-protein kinase SYK (Homo sapiens) (UniProt P43405); settings: Compound concentration 1000.0 nM
# [33] = target: Mitogen-activated protein kinase 6 (Homo sapiens) (UniProt Q16659); settings: Compound concentration 1000.0 nM
# [34] = target: Rho-associated protein kinase 2 (Homo sapiens) (UniProt O75116); settings: Compound concentration 1000.0 nM
# [35] = target: Serine/threonine-protein kinase 25 (Homo sapiens) (UniProt O00506); settings: Compound concentration 1000.0 nM
# [36] = target: Alpha-1B adrenergic receptor (Homo sapiens) (UniProt P35368); settings: Compound concentration 10.0 uM
# [37] = target: Aurora kinase B (Homo sapiens) (UniProt Q96GD4); settings: Compound concentration 1000.0 nM
# Chain of Aurora kinase B (Homo sapiens) (Q96GD4 whole entry): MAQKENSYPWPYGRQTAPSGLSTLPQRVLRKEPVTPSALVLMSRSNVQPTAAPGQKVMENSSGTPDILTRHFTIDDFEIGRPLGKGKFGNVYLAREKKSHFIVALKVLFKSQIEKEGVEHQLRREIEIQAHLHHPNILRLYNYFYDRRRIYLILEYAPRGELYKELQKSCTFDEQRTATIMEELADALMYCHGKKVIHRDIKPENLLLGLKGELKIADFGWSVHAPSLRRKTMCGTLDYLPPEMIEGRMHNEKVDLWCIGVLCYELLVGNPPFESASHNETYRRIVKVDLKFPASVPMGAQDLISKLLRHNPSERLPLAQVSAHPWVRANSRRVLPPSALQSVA
# [38] = system: Mast/stem cell growth factor receptor Kit (Homo sapiens), P10721 [L576P]; settings: Compound concentration 1000.0 nM
# [39] = target: D(4) dopamine receptor (Homo sapiens) (UniProt P21917); settings: Compound concentration 10.0 uM
# [40] = target: Platelet-derived growth factor receptor alpha (Homo sapiens) (UniProt P16234); settings: Compound concentration 1000.0 nM
# [41] = system: Receptor-type tyrosine-protein kinase FLT3 (Homo sapiens), P36888 [D835Y]; settings: Compound concentration 1000.0 nM
# [42] = target: Muscle, skeletal receptor tyrosine-protein kinase (Homo sapiens) (UniProt O15146); settings: Compound concentration 1000.0 nM
# [43] = target: Mitogen-activated protein kinase kinase kinase kinase 4 (Homo sapiens) (UniProt O95819); settings: Compound concentration 1000.0 nM
# [44] = target: Homeodomain-interacting protein kinase 4 (Homo sapiens) (UniProt Q8NE63); settings: Compound concentration 1000.0 nM
# [45] = target: Mitogen-activated protein kinase kinase kinase 20 (Homo sapiens) (UniProt Q9NYL2); settings: Compound concentration 1000.0 nM
smiles,measurement,setting,value
O=C(Nc1ccc(Oc2ccc(F)cc2)cc1)N1CCc2ncccc2[C@H]1c1ccc(F)cc1 [BAY-897],residual activity,[1],98%
same,residual activity,[2],100%
same,residual activity,[3],90%
same,residual activity,[4],85%
same,residual activity,[5],100%
same,residual activity,[6],70%
same,residual activity,[7],100%
same,residual activity,[8],100%
same,residual activity,[9],86%
same,residual activity,[10],97%
same,residual activity,[11],100%
same,residual activity,[12],100%
same,residual activity,[13],100%
same,inhibition,[14],43.3%
same,residual activity,[15],100%
same,residual activity,[16],100%
same,residual activity,[17],99%
same,residual activity,[18],95%
same,residual activity,[19],96%
same,residual activity,[20],94%
same,residual activity,[21],91%
same,residual activity,[22],100%
same,residual activity,[23],100%
same,residual activity,[24],100%
same,residual activity,[25],95%
same,residual activity,[26],100%
same,residual activity,[27],95%
same,residual activity,[28],91%
same,residual activity,[29],100%
same,IC50,[30],> 16 µM (not active)
same,residual activity,[31],82%
same,residual activity,[32],91%
same,residual activity,[33],98%
same,residual activity,[34],93%
same,residual activity,[35],100%
same,inhibition,[36],12.2%
same,residual activity,[37],89%
same,residual activity,[38],100%
same,inhibition,[39],0.29%
same,residual activity,[40],95%
same,residual activity,[41],99%
same,residual activity,[42],92%
same,residual activity,[43],100%
same,residual activity,[44],96%
same,residual activity,[45],100%
O=C(Nc1cnc(Oc2ccc(F)cc2)nc1)N1CCc2ncccc2[C@@H]1c1ccc(F)cc1 [BAY-899],residual activity,[1],88%
same,residual activity,[2],85%
same,residual activity,[3],87%
same,residual activity,[4],85%
same,residual activity,[5],82%
same,residual activity,[6],90%
same,residual activity,[7],100%
same,residual activity,[8],100%
same,residual activity,[9],83%
same,residual activity,[10],91%
same,residual activity,[11],91%
same,residual activity,[12],100%
same,residual activity,[13],100%
same,inhibition,[14],4.38%
same,residual activity,[15],100%
same,residual activity,[16],87%
same,residual activity,[17],100%
same,residual activity,[18],78%
same,residual activity,[19],93%
same,residual activity,[20],93%
same,residual activity,[21],88%
same,residual activity,[22],100%
same,residual activity,[23],90%
same,residual activity,[24],100%
same,residual activity,[25],100%
same,residual activity,[26],82%
same,residual activity,[27],63%
same,residual activity,[28],87%
same,residual activity,[29],97%
same,IC50,[30],> 16 µM (not active)
same,residual activity,[31],100%
same,residual activity,[32],84%
same,residual activity,[33],100%
same,residual activity,[34],100%
same,residual activity,[35],82%
same,inhibition,[36],-4.4%
same,residual activity,[37],80%
same,residual activity,[38],100%
same,inhibition,[39],43.8%
same,residual activity,[40],93%
same,residual activity,[41],100%
same,residual activity,[42],86%
same,residual activity,[43],86%
same,residual activity,[44],100%
same,residual activity,[45],100%
